The test system of data set [1] is Blumeria graminis f.sp. tritici. The experiment in a line: Blumeria test (wheat)/protective. It is filed as in vivo. To be noted: protective, 1000 ppm, evaluation 7 days after inoculation. The protocol: Blumeria Test (Wheat)/Protective [table] To produce an appropriate active compound formulation, I part by weight of active compound is mixed with the specified amounts of solvent and emulsifier, and the concentrate is diluted with water to the desired concentration. To test for protective activity, young plants are sprayed with the preparation of active compound at the stated application rate. After the spray coating has dried on, the plants are dusted with spores of Blumeria graminis f.sp. tritici.

A further data set concerns Plasmopara viticola. The experiment in a line: Plasmopara test (grapevine)/protective. In kind it is in vivo. To be noted: protective, 100 ppm, evaluation 6 days after inoculation. How it is done:
Plasmopara Test (Grapevine)/Protective [table] To produce an appropriate active compound formulation, I part by weight of active compound is mixed with the specified amounts of solvent and emulsifier, and the concentrate is diluted with water to the desired concentration. To test for protective efficacy, young plants are sprayed with the active compound formulation at the stated application rate. After the spray coating has dried on, the plants are inoculated with an aqueous spore suspension of Plasmopara viticola and then remain in an incubation cabin at about 20° C. and 100% relative atmospheric humidity for 1 day. The plants are then placed in a greenhouse at about 21° C. and about 90% atmospheric humidity for 4 days. The plants are then moistened and placed in an incubation cabin for 1 day.

For the next data set, the system named is Venturia inaequalis. Put plainly: Venturia test (apple)/protective. In kind it is in vivo. To be noted: protective, 100 ppm, evaluation 10 days after inoculation. How it is done:
Venturia Test (Apple)/Protective [table] To produce an appropriate active compound formulation, 1 part by weight of active compound is mixed with the specified amounts of solvent and emulsifier, and the concentrate is diluted with water to the desired concentration. To test for protective efficacy, young plants are sprayed with the active compound formulation at the stated application rate. After the spray coating has dried on, the plants are inoculated with an aqueous conidia suspension of the apple scab pathogen Venturia inaequalis and then remain in an incubation cabin at about 20° C. and 100% relative atmospheric humidity for 1 day. The plants are then placed in the greenhouse at about 21° C. and a relative atmospheric humidity of about 90%.

For another data set, the system named is Alternaria solani. The experiment in a line: Alternaria test (tomato)/protective. In kind it is in vivo. The settings on record: protective, 500 ppm, evaluation 7 days after inoculation. How it is done: Alternaria Test (Tomato)/Protective [table] To produce an appropriate active compound formulation, 1 part by weight of active compound is mixed with the specified amounts of solvent and emulsifier, and the concentrate is diluted with water to the desired concentration. To test for protective activity, young tomato plants are sprayed with the preparation of active compound at the stated application rate. 1 day after the treatment, the plants are inoculated with a spore suspension of Alternaria solani and then remain at 100% relative humidity and 20° C. for 24 h. The plants then remain at 96% relative atmospheric humidity and a temperature of 20° C.

The next data set concerns Sphaerotheca fuliginea. Put plainly: Sphaerotheca test (cucumber)/protective. It is filed as in vivo. The settings on record: protective, 500 ppm, evaluation 7 days after inoculation. The protocol:
Sphaerotheca Test (Cucumber)/Protective [table] To produce an appropriate active compound formulation, 1 part by weight of active compound is mixed with the specified amounts of solvent and emulsifier, and the concentrate is diluted with water to the desired concentration. To test for protective activity, young cucumber plants are sprayed with the preparation of active compound at the stated application rate. 1 day after the treatment, the plants are inoculated with a spore suspension of Sphaerotheca fuliginea. The plants are then placed in a greenhouse at 70% relative atmospheric humidity and a temperature of 23° C.

Data set [2] in a line: log P by HPLC on reversed-phase columns (EEC directive 79/831 Annex V.A8). In kind it is physicochemical. The settings on record: for log P: acidic range pH 2.7, 0.1% aqueous formic acid/acetonitrile. How it is done: The log P values were measured according to EEC directive 79/831 Annex V.A8 by HPLC (High Performance Liquid Chromatography) on reversed-phase columns (C 18), using the method below:
The determination was carried out in the acidic range at pH 2.7 using the mobile phases 0.1% aqueous formic acid and acetonitrile; linear gradient from 10% acetonitrile to 95% acetonitrile.

A further data set concerns Spodoptera frugiperda. Put plainly: Spodoptera frugiperda test (spray treatment). The settings on record: maize leaf discs, 500 g/ha. It is filed as in vivo. The protocol:
Spodoptera frugiperda Test (Spray Treatment) [table] To produce a suitable preparation of active compound, 1 part by weight of active compound is mixed with the stated amounts of solvents and emulsifier, and the concentrate is diluted with emulsifier-containing water to the desired concentration. Discs of maize leaves (Zea mays) are sprayed with an active compound preparation of the desired concentration and, after drying, populated with caterpillars of the armyworm (Spodoptera frugiperda). After the desired period of time, the effect in % is determined. 100% means that all caterpillars have been killed; 0% means that none of the caterpillars have been killed.

For the next data set, the system named is Meloidogyne incognita. Put plainly: Meloidogyne test (spray treatment). It is filed as in vivo. To be noted: lettuce, 20 ppm. How it is done:
Meloidogyne Test (Spray Treatment) [table] To prepare a suitable active compound preparation, 1 part by weight of active compound is mixed with the stated amount of solvent and the concentrate is diluted with water to the desired concentration. Containers are filled with sand, solution of active compound, Meloidogyne incognita egg/larvae suspension and lettuce seeds. The lettuce seeds germinate and the plants develop. On the roots, galls are formed. After the desired period of time, the nematicidal action is determined in % by the gall formation. 100% means that no galls have been found; 0% means that the number of galls on the treated plants corresponds to that of the untreated control.

Another data set concerns Leptosphaeria nodorum. Put plainly: In vitro test for determining the ED50 value with Leptosphaeria nodorum. To be noted: 50% inhibition of fungal growth, microtitre plates, 6 days, 20° C. It is filed as cell-based. The protocol: In Vitro Test for Determining the ED50 Value with Leptosphaeria nodorum The cavities of 96-well microtitre plates are filled with 1.5 μl of a solution of the test compounds in DMSO. 150 μl of a glucose/peptone medium comprising the spores of the test fungus in a suitable concentration are introduced into each cavity. The test compounds in the microtitre cavities are used in concentrations of 20, 6, 2 and 0.6 ppm. The absorbance is determined photometrically at 620 nm. The microtitre plates are left at 20° C. and 85% relative atmospheric humidity for 6 days. Once the incubation time has passed, the growth of the test organisms is determined photometrically at a wavelength of 620 nm. The difference in absorbances before and after the incubation corresponds to the growth of the test fungi. Based on the difference of the absorbances at the various test concentrations and the difference of the absorbances of the untreated control, a dose/activity curve is calculated. The concentration required to inhibit fungal growth by 50% is determined and reported as ED50 value (=Effective Dose which causes 50% inhibition of growth) in ppm (=mg/l).

On to `CC1=NOC(=O)C1=Cc1ccc(N(C)C)cc1` [Compound A-7], for which the efficacy in data set [1] was 0%; in the data set on Plasmopara viticola, 45%; in the data set with Venturia inaequalis it was 0%; in the data set on Alternaria solani it was 0%; in the data set on Sphaerotheca fuliginea, 10%.

Take `Cc1cc(C)c(C=C2C(=O)ON=C2c2c(F)cccc2F)c(C)c1` [Compound I-24]: the log P (in general, the decadic logarithm of the partition coefficient of the neutral form, usually between octanol and water) in data set [2] stood at 4.09. Moreover, in the data set with Spodoptera frugiperda, the “activity (caterpillars killed)” value is recorded as ≥ 80%.

Turning to `CC1=NOC(=O)/C1=C\c1ccco1` [Compound A-8], the efficacy in [1] came out at 29%; in the data set on Plasmopara viticola, 28%; in the data set with Venturia inaequalis it was 6%; in the data set with Alternaria solani, 0%; in the data set with Sphaerotheca fuliginea it was 0%.

As to `Cc1cc(C)c(C=C2C(=O)ON=C2c2ccc(Cl)cc2)c(C)c1` [Compound I-70], the “log P” value in [2] was found to be 4.50. Also, in the data set with Meloidogyne incognita, the “activity (nematicidal action by gall formation)” value is given as ≥ 80%.

As to `COc1ccc(C=C2C(=O)ON=C2C)cc1` [Compound A-5], the efficacy in [1] came to 29%; in the data set on Plasmopara viticola it was 40%; in the data set with Venturia inaequalis, 59%; in the data set with Alternaria solani, 0%; in the data set on Sphaerotheca fuliginea, 40%.

For `O=C1ON=C(c2ccccc2)C1=Cc1ccccc1` [Compound A-1], the efficacy in data set [1] is listed as 29%; in the data set with Alternaria solani, 0%; with Sphaerotheca fuliginea, 30%.

Take `O=C1ON=C(c2ccccc2)C1=Cc1ccc(Cl)cc1` [Compound A-2]: the efficacy was found to be 29% in data set [1]; 38% in the data set with Plasmopara viticola; 16% with Venturia inaequalis; 0% in the data set with Alternaria solani; 20% with Sphaerotheca fuliginea.

For the molecule `O=C1ON=C(c2ccccc2)C1=Cc1ccccc1Cl` [Compound A-6], the efficacy in data set [1] came to 29%; with Plasmopara viticola, 38%; with Venturia inaequalis, 14%; in the data set on Alternaria solani, 0%; in the data set with Sphaerotheca fuliginea it was 50%.

For `CC1=NOC(=O)C1=Cc1ccc(C)cc1` [Compound A-4], the efficacy in [1] is reported as 43%; in the data set on Plasmopara viticola, 35%; in the data set on Venturia inaequalis, 9%; in the data set with Alternaria solani it was 0%; with Sphaerotheca fuliginea, 30%. In the data set on Leptosphaeria nodorum, the ED50 came to 14 ppm.

On to `Cc1cc(C)c(C=C2C(=O)ON=C2c2cccc(C)c2C)c(C)c1` [Compound I-8], for which, in data set [2], the “log P” value was found to be 4.68.

`Cc1cc(C)c(C=C2C(=O)ON=C2c2ccc(OC(C)C)cc2)c(C)c1` [Compound I-62]: the “log P” value in data set [2] turned out to be 4.70.

Regarding `Cc1cc(C)c(C=C2C(=O)ON=C2c2cc(Cl)cc(Cl)c2)c(C)c1` [Compound I-58], the lipophilicity (log P) in data set [2] was 5.01.

Take `Cc1cccc(C)c1C=C1C(=O)ON=C1c1cc(F)ccc1Cl` [Compound I-39]: the “log P” value in data set [2] turned out to be 3.96.

Take `CC1=NOC(=O)C1=Cc1ccccc1` [Compound A-3]: the efficacy in data set [1] came to 57%; in the data set with Plasmopara viticola, 55%; in the data set with Venturia inaequalis, 48%; in the data set on Alternaria solani, 0%; in the data set on Sphaerotheca fuliginea, 30%.

As for `Cc1cccc(C2=NOC(=O)C2=Cc2c(C)cccc2C)c1C` [Compound I-12], the “log P” value in data set [2] amounted to 4.26.

For the molecule `O=C1CC(c2ccc(F)cc2)=NO1` [3-(4-fluorophenyl)isoxazol-5(4H)-one], in [2] (reversed-phase HPLC column (C18), preparation examples, acidic range pH 2.7, formic acid, read-out: log P (HCOOH)), the chromatographic logP is 1.74.

For `Cc1cc(C)c(C=C2C(=O)ON=C2c2ccc(-c3ccccc3)cc2)c(C)c1` [Compound I-63], the “log P” value in data set [2] was 5.16.

Turning to `Cc1cccc(C)c1C=C1C(=O)ON=C1c1cc(F)ccc1F` [Compound I-37], the “log P” value in data set [2] was 3.77.

`Cc1cc(C)c(C=C2C(=O)ON=C2c2cccc(F)c2)c(C)c1` [Compound I-55]: the “log P” value in [2] came out at 4.15.

In the case of `Cc1ccccc1C1=NOC(=O)C1=Cc1c(C)cccc1C` [Compound I-9], in data set [2], the “log P” value is given as 3.95.

For `COc1ccc(F)cc1C1=NOC(=O)C1=Cc1c(C)cccc1C` [Compound I-21], the “log P” value in data set [2] turned out to be 3.75.

As for `Cc1cccc(C)c1C=C1C(=O)ON=C1c1ccccc1Cl` [Compound I-29], in [2], the “log P” value is 3.97.
